Reference: patent US20060276468A1, “Wood preservative formulations comprising Imazalil” (priority 2005, published 2006)
Entries after “also recorded” stand apart in the source; their conditions may differ.

Test system: decay organisms
Assay: soil contact veneer exposure test: dip-treated Scots pine sapwood veneers half buried in damp compost, pulled by hand weekly until failure
Conditions: for half life, Low level with 0.8% Imazalil sulfate: 0.8% fungicide plus 0.8% imazalil sulfate, IMS; for estimated expected half life for 1% fungicide plus 1% Imazalil sulfate / Half life for 1% fungicide plus 1% Imazalil sulfate / Half life for fungicide at 2% active ingredient (ai): Example 3; for synergy of the combination with imazalil sulfate: actual versus expected average time to failure; for half life, Low level with 0.8% Imazalil: 0.8% fungicide plus 0.8% imazalil; for average time for failure to occur (half life) / average time for failure to occur (half life), combination with imazalil sulfate / estimated expected average time for failure, combination with imazalil sulfate: Example 1; for average time for failure to occur (half life): biocide alone: 0.6% dichlorophen, 0.2% triclosan, 0.8% fenarimol, 0.8% PHMB, 0.4% imazalil sulfate, 6 veneers; for average time for failure to occur (half life), combination with imazalil sulfate: 0.3% dichlorophen, 0.1% triclosan, 0.4% fenarimol or 0.4% PHMB, each plus 0.2% imazalil sulfate; for estimated expected average time for failure, combination with imazalil sulfate: midway between the two single biocides
From the text: The present invention also provides a simple exposure test for evaluating the wood preserving abilities of candidate ingredients or compositions. This exposure test is based on the premise that small dimension timber test specimens tend to fail more quickly than larger ones in soil contact situations.
It is preferable that the thickness of the veneers be greater than 0.1 mm, as veneers of lesser thickness can often be pulled apart by hand without undergoing exposure to decay organisms. Veneers which are thicker than 0.4 may take an excessive amount of time to fail the exposure test. In one embodiment, the thickness of the veneers is about 0.2 mm and the wood is the sapwood of the Scots pine (Pinus sylvestris). Other woods and thicknesses can be used. […] An example of convenient width and length dimensions are 15×50 mm. However, width and length are not critical provided they are kept consistent within a test, although very large or small length or width dimensions may be difficult to handle.
Accordingly, the test of the present invention comprises testing the integrity of a veneer after exposure to a decay-inducing environment. In one embodiment, this environment is damp compost in which decay organisms are present and water is present at just above the water holding capacity of the compost. If desired, other media can be used, and the test can be conducted at water contents which are below, at, or above the water-holding capacity of the media.
In general, the integrity of the veneer is inversely related to the length of exposure to the decay promoting environment. The integrity of the veneer can be tested by applying a force to the veneer and noting whether or not the veneer breaks. Thus, if wood preservative agents are applied to the veneers, these veneers would be expected to withstand longer exposure to the environment without breaking compared to control veneers without breaking.
The force applied to the veneers is preferably a force which pulls the two ends in opposite directions. The force can be applied by the use of an instrument or manually. If there is significant decay the veneer will break, generally near the junction between the portion submerged in the decay accelerating medium and the portion exposed to air. If the force is applied manually, it is preferable that the same individual conduct the test at the various exposure time points.
The veneers were cut such that both late wood and early wood were present in each veneer. The following biocides were tested: imazalil sulfate, dichlorophen, fenarimol, triclosan, and PHMB. To allow the mixing together of the five selected biocides in any combination the biocides were formulated such that they could be mixed together (all the percentages are mass/mass):
Test solutions were prepared and sets of veneers were dip treated such that there were 6 replicate veneers for each treatment under investigation. Additionally six veneers were dip treated in deionised water to act as water controls. […] Plastic containers (approximately 350×220 mm by at least 60 mm high) were part filled with John Innes Number 2 potting compost at a little above its water holding capacity. The veneers for this particular test were placed in six rows within a container such that approximately half the veneer was below the compost and half above. The veneers were placed in the compost such than those given a particular treatment were distributed throughout the container and were not grouped together. The containers, compost and veneers were weighed then incubated at about 30° C. and near 100% relative humidity in an incubator. Each week during the test the assembly was reweighed and deionised water added to bring it back to its original mass. After 3 weeks each veneer was examined in turn. It was held between the fore finger and thumb at each end and pulled to see if it could be broken. If it could be pulled apart a failure was recorded.

[1] = unnumbered table, additive expectation
[2] = unnumbered table, solutions in IMS
[3] = Example 5, additive expectation
[4] = Example 5, solutions in acetone
[5] = Example 10, additive expectation
[6] = Example 10, solutions in IMS (alcohol)
[7] = Example 14, 0.6% dichlorophen or 0.4% imazalil sulfate alone
[8] = Example 15, 2.0% alone, solutions in IMS (alcohol)
[9] = Example 16, 0.8% alone, solutions in IMS (alcohol)
[10] = Example 16, 1.6% alone, solutions in IMS (alcohol)
[11] = Example 8, solutions in IMS (alcohol)
[12] = Example 7, solutions in acetone

Compound: CCCCCCCCCC[N+](C)(C)CCCCCCCCCC.[Cl-] [DDAC, didecyl dimethyl ammonium chloride]
- half life, Low level with 0.8% Imazalil sulfate: 5.50 weeks
- average time for failure to occur, quat with Imazalil sulfate (Example 2, 0.18% active quat plus 0.30% imazalil sulfate (Table 3; text b187 says 0.2%)): 5.50 weeks
- average time for failure to occur, Quat Only (Example 2, 0.36% active quat in deionised water): 4.17 weeks
- estimated expected half life for 1% fungicide plus 1% Imazalil sulfate (additive expectation): 5.50 weeks
- Half life for 1% fungicide plus 1% Imazalil sulfate (solutions in IMS (alcohol)): 6.50 weeks
- Half life for fungicide at 2% active ingredient (ai) (solutions in IMS (alcohol)): 5.00 weeks
- synergy of the combination with imazalil sulfate: evidence of synergy
- expected half life, Low level with 0.8% Imazalil sulfate (additive expectation): {5.58 weeks}
- half life, High level (1.6%) (solutions in IMS): 5.33 weeks
- half life, Low level (0.8%) (solutions in IMS): 5.00 weeks

Compound: O=C(Nc1ccccc1)c1ccccc1O [Salicylanilide, 2-hydroxy-N-phenylbenzamide]
- half life, Low level with 0.8% Imazalil sulfate (unnumbered table): 6.50 weeks
- expected half life, Low level with 0.8% Imazalil sulfate [1]: {6.34 weeks}
- half life, High level (1.6%) [2]: 5.67 weeks
- half life, Low level (0.8%) [2]: 4.83 weeks

Compound: OB(O)O [Boric acid]
- half life, Low level with 0.8% Imazalil sulfate (unnumbered table): 5.33 weeks
- expected half life, Low level with 0.8% Imazalil sulfate [1]: {5.57 weeks}
- half life, High level (1.6%) [2]: 4.50 weeks
- half life, Low level (0.8%) [2]: 3.83 weeks

Compound: CCCCCCCCCCCCCN1CC(C)OC(C)C1 (stereo not drawn) [Tridemorph, 4-alkyl-2,6-dimethylmorpholine]
- estimated expected half life for 1% fungicide plus 1% Imazalil sulfate (additive expectation): 5.42 weeks
- Half life for 1% fungicide plus 1% Imazalil sulfate (solutions in IMS (alcohol)): 6.33 weeks
- Half life for fungicide at 2% active ingredient (ai) (solutions in IMS (alcohol)): 4.83 weeks

Compound: CCCC1COC(Cn2cncn2)(c2ccc(Cl)cc2Cl)O1 (stereo not drawn) [Propiconazole, 1-[[2-(2,4-dichlorophenyl)-4-propyl-1,3-dioxolan-2-yl]=methyl]-1H-1,2,4-triazole]
- estimated expected half life for 1% fungicide plus 1% Imazalil [3]: {6.59 weeks}
- Half life for 1% fungicide plus 1% Imazalil [4]: 7.33 weeks
- Half life for fungicide at 2% ai [4]: 5.50 weeks
- half life, Low level with 0.8% Imazalil (Example 10, IMS (alcohol)): 6.17 weeks
- estimated expected half life, Low level with 0.8% Imazalil [5]: (5.84 weeks)
- half life, High level (1.6%) [6]: 5.50 weeks
- half life, Low level (0.8%) [6]: 5.33 weeks

Compound: Oc1ccc(Cl)cc1Cc1cc(Cl)ccc1O [Dichlorophen, 2,2′-methylenebis[4-chlorophenol]]
- average time for failure to occur (half life): 9.50 weeks
- estimated expected half life for 1% fungicide plus 1% Imazalil sulfate (additive expectation): 12.92 weeks
- Half life for 1% fungicide plus 1% Imazalil sulfate (solutions in IMS (alcohol)): 15.33 weeks
- Half life for fungicide at 2% active ingredient (ai) (solutions in IMS (alcohol)): 19.83 weeks
- half life, With Imazalil sulfate (Example 14, 0.3% dichlorophen plus 0.2% imazalil sulfate): 11.2 weeks
- half life, No addition [7]: 9.5 weeks
- expected half life, With Imazalil sulfate (Example 14, additive expectation): {7.4 weeks}
- half life, With Imazalil sulfate (Example 15, 1.0% dichlorophen plus 1.0% imazalil sulfate, IMS (alcohol)): 19.67 weeks
- half life, No addition [8]: 17.00 weeks
- expected half life, With Imazalil sulfate (Example 15, additive expectation): {12.42 weeks}
- Calculated half life [9]: 11.33 weeks
- Calculated half life (Example 16, 0.8% dichlorophen plus 0.8% imazalil sulfate, IMS (alcohol)): 13.00 weeks
- expected half life (Example 16, 0.8% dichlorophen plus 0.8% imazalil sulfate, additive expectation): {11.25 weeks}
- Calculated half life [10]: 14.50 weeks
- synergy of the combination with imazalil sulfate: positive synergy; also recorded: exceeded the expected value

Compound: 1H-imidazole,1-(2-(2,4-dichlorophenyl)-2-(2-propenyloxy)ethyl)-, sulfate [Imazalil sulfate]
- average time for failure to occur (half life): 5.17 weeks
- average time for failure to occur, No Quat (Example 2, 0.60% imazalil sulfate alone (Table 3; text b187 says 0.4%)): 5.67 weeks
- Half life for fungicide at 2% active ingredient (ai) (solutions in IMS (alcohol)): 6.00 weeks
- Half life for fungicide at 2% ai (Example 4, Table 8 title: solutions in acetone (Table 7: deionised water)): 7.17 weeks
- half life, No addition (Example 9, 1.4% BBIT or 0.4% imazalil sulfate alone, formulations which can be mixed together): 5.50 weeks
- Calculated half life (Example 12, Fluid 1, 0.25% imazalil sulfate in deionized water): 5.00 weeks
- Calculated half life (Example 12, Fluid 2, 0.50% imazalil sulfate in deionized water): 6.50 weeks
- Calculated half life (Example 12, Fluid 3, 1.00% imazalil sulfate in deionized water): 6.83 weeks
- Calculated half life (Example 12, Fluid 4, 1.50% imazalil sulfate in deionized water): 8.17 weeks
- half life, No addition [7]: 5.2 weeks
- half life, No addition [8]: 7.83 weeks
- Calculated half life [9]: 7.00 weeks
- Calculated half life [10]: 8.00 weeks
- half life, High level (1.6%) (solutions in IMS): 5.83 weeks
- half life, Low level (0.8%) (solutions in IMS): 5.00 weeks
- half life, High level (1.6%) [2]: 7.00 weeks
- half life, Low level (0.8%) [2]: 5.67 weeks

Compound: CCCCCCCCCCCCN(CCCN)CCCN [Triameen Y 12D-30, N,N-bis(3-aminopropyl)dodeclamine]
- estimated expected half life, Low level (0.8%) plus 0.8% Imazalil (Example 8, additive expectation): {5.75 weeks}
- half life, High level (1.6%) [11]: 5.00 weeks
- half life, Low level (0.8%) [11]: 4.33 weeks
- half life, Low level (0.8%) plus 0.8% Imazalil [11]: 6.00 weeks

Compound: Poly(hexamethylenebiguanide)hydrochloride [PHMB]
- average time for failure to occur (half life), combination with imazalil sulfate: 5.17 weeks
- estimated expected average time for failure, combination with imazalil sulfate (additive expectation): (5.00) weeks
- average time for failure to occur (half life): 4.83 weeks
- synergy of the combination with imazalil sulfate: positive synergy

Compound: alkyl dimethyl benzyl ammonium chloride [BAC]
- estimated expected half life for 1% fungicide plus 1% Imazalil sulfate (additive expectation): 5.59 weeks
- Half life for 1% fungicide plus 1% Imazalil sulfate (solutions in IMS (alcohol)): 6.17 weeks
- Half life for fungicide at 2% active ingredient (ai) (solutions in IMS (alcohol)): 5.17 weeks
- half life, Low level with 0.8% Imazalil sulfate (unnumbered table): 6.00 weeks
- expected half life, Low level with 0.8% Imazalil sulfate [1]: {592 weeks}
- half life, High level (1.6%) [2]: 4.83 weeks
- half life, Low level (0.8%) [2]: 4.67 weeks

Compound: CCCCCCCCn1sc(Cl)c(Cl)c1=O [RH 287, 4,5-dichloro-2-n-octyl-3(2H)-isothiazolone]
- estimated expected half life for 1% fungicide plus 1% Imazalil [3]: {15.09 weeks}
- Half life for 1% fungicide plus 1% Imazalil [4]: 19.33 weeks
- Half life for fungicide at 2% ai [4]: 22.50 weeks

Compound: copper naphthenate [Copper (as copper naphthenate)]
- estimated expected half life for 1% fungicide plus 1% Imazalil (Example 6, additive expectation): {10.50 weeks}
- Half life for fungicide at 2% ai (Example 6, solutions in xylene): 14.83 weeks
- Half life for 1% fungicide plus 1% Imazalil (Example 6, solutions in xylene, 1% copper): 11.67 weeks

Compound: CC(C1CC1)C(O)(Cn1cncn1)c1ccc(Cl)cc1 (stereo not drawn) [Cyproconazole, α-(4-chlorophenyl)-α-(1-cyclopropylethyl)-=1H-1,2,4-triazol-1-ethanol]
- estimated expected half life, Low level (0.8%) plus 0.8% Imazalil (Example 7, additive expectation): {5.42 weeks}
- half life, High level (1.6%) [12]: 4.67 weeks
- half life, Low level (0.8%) [12]: 4.17 weeks
- half life, Low level (0.8%) plus 0.8% Imazalil [12]: 6.17 weeks
- half life, Low level with 0.8% Imazalil (Example 10, IMS (alcohol)): 6.17 weeks
- estimated expected half life, Low level with 0.8% Imazalil [5]: (5.42 weeks)
- half life, High level (1.6%) [6]: 4.67 weeks
- half life, Low level (0.8%) [6]: 4.17 weeks

Compound: OC(c1ccc(Cl)cc1)(c1cncnc1)c1ccccc1Cl (racemic) [Fenarimol, (±)-2,4′-dichloro-α-(pyrimidin-5-yl)benzhydryl alcohol]
- half life, Low level with 0.8% Imazalil sulfate: 6.67 weeks
- average time for failure to occur (half life), combination with imazalil sulfate: 6.67 weeks
- estimated expected average time for failure, combination with imazalil sulfate (additive expectation): (6.17) weeks
- average time for failure to occur (half life): 7.17 weeks
- synergy of the combination with imazalil sulfate: positive synergy
- half life, High level (1.6%) (solutions in IMS): 5.00 weeks
- half life, Low level (0.8%) (solutions in IMS): 4.50 weeks
